Reference: ChEMBL document CHEMBL4665861, “Chemical constituents from Macleaya cordata (Willd) R. Br. and their phenotypic functions against a Parkinson's disease patient-derived cell line” (Bioorg Med Chem, 2020)
Each block holds one compound with its values, some of them ahead of it. Active and inactive are the calls of the source. No cut-off for these calls is given here.

Columns and labels:
[1] = Cytotoxicity against Parkinson's disease patient human ONS derived C1200080013 cells assessed as cell death at 30 uM incubated for 24 hrs; assay type: cell-based; conditions: c1200080013, 24 h
C1200080013 = test: Induction of cytological phenotypic changes in cellular organelles in Parkinson's disease patient human ONS derived C1200080013 cells assessed as perturbation in mitochondrial features by measuring punctuate and fragmented mitochondrial morphology at 30 uM incubated for 24 hrs by MitoTrackerOrange CMTMRos/DAPI staining based fluorescence microscopic analysis; assay type: functional, cell-based
[2] = (§1) Induction of cytological phenotypic changes in cellular organelles in Parkinson's disease patient human ONS derived C1200080013 cells assessed as perturbation of EEA1 marker intensity in cytoplasm by measuring log2ratio at 30 uM incubated for 24 hrs by LysoTrackerRed DND-99/anti-EEA1 staining based fluorescence microscopic analysis; assay type: tissue-based; conditions: c1200080013, 24 h
[3] = (§2) Induction of cytological phenotypic changes in cellular organelles in Parkinson's disease patient human ONS derived C1200080013 cells assessed as perturbation of mitochondria marker intensity in inner region of cytoplasm by measuring log2ratio at 30 uM incubated for 24 hrs by MitoTrackerOrange CMTMRos/DAPI staining based fluorescence microscopic analysis; assay type: functional
[4] = as §1, with “changes” for “perturbation of EEA1 marker intensity”, “features associated with early endosome antigen1” for “cytoplasm”, “alteration in EEA1 staining intensity” for “log2ratio”, “10” for “30”; assay type: tissue-based; conditions: c1200080013, 24 h
[5] = Induction of cytological phenotypic changes in cellular organelles in Parkinson's disease patient human ONS derived C1200080013 cells assessed as perturbation of auto-phagosomal features by measuring depletion in LC3b staining intensity at 30 uM incubated for 24 hrs by anti-LC3b1/335/DAPI staining based fluorescence microscopic analysis; assay type: tissue-based; conditions: c1200080013, 24 h
[6] = as §2, with “features” for “marker intensity in inner region of cytoplasm”, “reduction in MitoTracker staining intensity” for “log2ratio”; conditions: c1200080013, 24 h
[7] = as §1, with “early endosomal features” for “EEA1 marker intensity in cytoplasm”, “reduction in EEA1 staining intensity” for “log2ratio”; assay type: tissue-based; conditions: c1200080013, 24 h
[8] = as §2, with “changes in” for “perturbation of”, “cytoplasm” for “cytoplasm by measuring log2ratio”, “20” for “30”; conditions: c1200080013, 24 h
[9] = as §2, with “auto-phagosomal LC3b” for “mitochondria”, “anti-LC3b1/335/DAPI” for “MitoTrackerOrange CMTMRos/DAPI”; assay type: tissue-based; conditions: c1200080013, 24 h

Structure (SMILES): COc1cc(OC)c2c(c[n+](C)c3c4cc5c(cc4ccc23)OCO5)c1OC
- Activity [1]: Toxic

- log(ratio) [2]: -0.73
Structure (SMILES): COc1ccc2c(c1OC)C(CO)N(C)c1c-2ccc2cc3c(cc12)OCO3 (configuration not stated)
- Activity (C1200080013): Active
- log(ratio) [3]: -0.85

Structure (SMILES): COc1ccc2c(c[n+](C)c3c4cc5c(cc4ccc23)OCO5)c1OC [CHELERYTHRINE]
- Activity [1]: Toxic

Structure (SMILES): CCN(CC)CCCC(C)Nc1ccnc2cc(Cl)ccc12 (configuration not stated) [CHLOROQUINE]
- Activity [4]: Toxic
- Activity [5]: Non-Toxic

Structure (SMILES): C[n+]1cc2c3c(ccc2c2ccc4cc5c(cc4c21)OCO5)OCO3 [SANGUINARIUM]
- Activity [1]: Toxic

Structure (SMILES): COc1cc(/C=C/C(=O)O[C@@H]2C[C@](O)(C(=O)O)C[C@@H](O)[C@H]2O)ccc1O
- Activity [6]: Non-Toxic
- Activity [7]: Non-Toxic
- Activity [5]: Non-Toxic

Structure (SMILES): C=C(C)[C@H]1Cc2c(ccc3c2O[C@@H]2COc4cc(OC)c(OC)cc4[C@@H]2C3=O)O1 [ROTENONE]
- Activity [8]: Toxic

Structure (SMILES): COc1cc2c(c3c[n+](C)c4c5cc6c(cc5ccc4c13)OCO6)OCO2
- Activity [1]: Toxic

- log(ratio) [9]: -0.99
Structure (SMILES): COc1ccc2c(c1OC)C(C(C)O)N(C)c1c-2ccc2cc3c(cc12)OCO3 (configuration not stated)

Structure (SMILES): COc1cc(/C=C/C(=O)O)ccc1O[C@@H]1O[C@H](CO)[C@@H](O)[C@H](O)[C@H]1O
- Activity [6]: Non-Toxic
- Activity [7]: Non-Toxic
- Activity [5]: Non-Toxic
